In ChEMBL document CHEMBL5241137, “Evaluation of carboxylic acid-derivatized corroles as novel gram-positive antibacterial agents under non-photodynamic inactivation conditions” (2023):
Converted amounts (≈) assume the structure as drawn.

Assays:
[1] = system: Staphylococcus aureus; assay: Antibacterial activity against methicillin-resistant Staphylococcus aureus […] assessed as reduction in bacterial growth measured under non-photodynamic inactivation condition; type: functional; settings: light or radiation study
[2] = system: Staphylococcus aureus; assay: Antibacterial activity against methicillin-sensitive Staphylococcus aureus ATCC 29213 assessed as reduction in bacterial growth measured under non-photodynamic inactivation condition; type: functional; settings: ATCC 29213, light or radiation study

Compound `Cc1ccc(-c2c3nc(c(-c4cc(C(=O)O)cc(C(=O)O)c4)c4ccc([nH]4)c4ccc([nH]4)c(-c4cc(C(=O)O)cc(C(=O)O)c4)c4ccc2[nH]4)C=C3)cc1` has an MIC [1] of 12.5 µg/mL (≈ 17.4 µM) and an MIC [2] of 12.5 µg/mL (≈ 17.4 µM).
`CN[C@H](CC(C)C)C(=O)N[C@H]1C(=O)N[C@@H](CC(N)=O)C(=O)N[C@H]2C(=O)N[C@H]3C(=O)N[C@H](C(=O)N[C@H](C(=O)O)c4cc(O)cc(O)c4-c4cc3ccc4O)[C@H](O)c3ccc(c(Cl)c3)Oc3cc2cc(c3O[C@@H]2O[C@H](CO)[C@@H](O)[C@H](O)[C@H]2O[C@H]2C[C@](C)(N)[C@H](O)[C@H](C)O2)Oc2ccc(cc2Cl)[C@H]1O` [VANCOMYCIN] showed an MIC [1] of 0.39 µg/mL (≈ 0.269 µM) and an MIC [2] of 0.39 µg/mL (≈ 0.269 µM).
`O=C(O)c1ccc(-c2c3nc(c(-c4ccc(C(=O)O)cc4)c4ccc([nH]4)c4ccc([nH]4)c(-c4ccc(C(=O)O)cc4)c4ccc2[nH]4)C=C3)cc1` was tested, and the MIC [1] was 100 µg/mL (≈ 152 µM) and the MIC [2] was 100 µg/mL (≈ 152 µM).
In the case of `Fc1cc(F)c(F)c(-c2c3nc(c(-c4c(F)c(F)c(F)c(F)c4F)c4ccc([nH]4)c(-c4c(F)c(F)cc(F)c4F)c4ccc([nH]4)c4ccc2[nH]4)C=C3)c1F`, the MIC [1] is reported as 12.5 µg/mL (≈ 16.4 µM) and the MIC [2] is reported as 25 µg/mL (≈ 32.9 µM).
Work on `CO[C@@]1(NC(=O)Cc2cccs2)C(=O)N2C(C(=O)O)=C(COC(N)=O)CS[C@@H]21` [CEFOXITIN] yielded an MIC [1] of 25 µg/mL (≈ 58.5 µM) and an MIC [2] of 3.12 µg/mL (≈ 7.3 µM).
`O=S(=O)(O)CCNc1c(F)c(F)c(-c2c3nc(c(-c4c(F)c(F)c(NCCS(=O)(=O)O)c(F)c4F)c4ccc([nH]4)c4ccc([nH]4)c(-c4c(F)c(F)c(NCCS(=O)(=O)O)c(F)c4F)c4ccc2[nH]4)C=C3)c(F)c1F` showed an MIC [1] of 100 µg/mL (≈ 89.9 µM) and an MIC [2] of over 100 µg/mL.
Work on `Cc1ccc(-c2c3nc(c(-c4ccc(C(=O)O)cc4)c4ccc([nH]4)c(-c4ccc(C)cc4)c4ccc([nH]4)c4ccc2[nH]4)C=C3)cc1` yielded an MIC [1] of 100 µg/mL (≈ 167 µM) and an MIC [2] of 100 µg/mL (≈ 167 µM).
In the case of `Cc1c(C(=O)O)[nH]c(C(c2ccccc2)c2[nH]c(C(=O)O)c(C)c2C)c1C`, the MIC [1] is reported as 50 µg/mL (≈ 136 µM) and the MIC [2] is reported as 100 µg/mL (≈ 273 µM).
Compound `O=C(O)c1ccc(C(c2ccc[nH]2)c2ccc[nH]2)cc1` has an MIC [1] of 50 µg/mL (≈ 188 µM) and an MIC [2] of 50 µg/mL (≈ 188 µM).
